Measurements taken from patent US9597310B2, “Indanyloxydihydrobenzofuranylacetic acids” (Boehringer Ingelheim International GmbH, priority 2012, dated 2017).

Target: human GPR40 receptor (Homo sapiens (Human), UniProt O14842)
Experiment: IP1 accumulation measurements using the IPOne assay system
Type: cell-based
Details: 1321N1 cells stably expressing human GPR40 receptor, 1 h stimulation
Experimental: IP1 accumulation measurements using the IPOne assay system—1321N1 cells stably expressing human GPR40 receptor (Euroscreen, Belgium) are seeded 24 h before the assay in white 384-well plates in culture medium containing 10% FCS, 1% Na-Pyruvate and 400 μg/mL G418. IP1 is assayed according to the manufacturer's description (Cisbio Bioassays, France). In brief, the assay is started by substitution of the culture medium by stimulation buffer (Hepes 10 mM, CaCl2 1 mM, MgCl2 0.5 mM, KCl 4.2 mM, NaCl 146 mM, glucose 5.5 mM and LiCl 50 mM, pH 7.4). Cells are stimulated for 1 h at 37° C., 5% CO2 by addition of the compounds that are diluted in stimulation buffer containing LiCl. Assays are stopped by adding HTRF-conjugates (IP1-d2 and Anti-IP1 cryptate Tb) and lysis buffer, provided by the manufacturer. After an incubation time of 1 h at room temperature plates are measured using an EnVision™, Perkin Elmer. The obtained fluorescence ratios at 665/615 […] are then used to calculate the pEC50 values using Assay Explorer 3.3 Software (Accelrys, Inc.) by interpolation using an IP1 reference curve and subsequent sigmoidal curve fitting allowing for a variable hill slope.

human GPR40 receptor, sequence (O14842 whole entry): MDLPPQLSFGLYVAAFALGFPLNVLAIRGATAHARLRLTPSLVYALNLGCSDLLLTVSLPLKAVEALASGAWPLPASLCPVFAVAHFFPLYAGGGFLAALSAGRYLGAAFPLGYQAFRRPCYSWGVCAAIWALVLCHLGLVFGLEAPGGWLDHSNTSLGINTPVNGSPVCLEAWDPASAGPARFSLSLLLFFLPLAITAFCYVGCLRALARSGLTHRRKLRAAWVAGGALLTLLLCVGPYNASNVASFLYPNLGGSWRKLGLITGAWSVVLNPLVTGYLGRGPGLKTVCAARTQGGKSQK

SMILES	EC50
CS(=O)(=O)CCCOc1ccc(Oc2ccc(F)c3c2CC[C@H]3Oc2ccc3c(c2)OC[C@H]3CC(=O)O)cc1 [Example 4, [(S)-6-{(R)-7-Fluoro-4-[4-(3-methanesulfonyl-propoxy)-phenoxy]-indan-1-yloxy}-2,3-dihydro-benzofuran-3-yl)-acetic acid]	15 nM
O=C(O)C[C@@H]1COc2cc(O[C@@H]3CCc4c(Oc5ccc(CN6CCOCC6)cc5)ccc(F)c43)ccc21 [Example 5, {(S)-6-[(R)-7-Fluoro-4-(4-morpholin-4-ylmethyl-phenoxy)-indan-1-yloxy]-2,3-dihydro-benzofuran-3-yl}-acetic acid]	25 nM
CC(=O)NCc1cccc(Oc2ccc(F)c3c2CC[C@H]3Oc2ccc3c(c2)OC[C@H]3CC(=O)O)c1 [Example 7, [(S)-6-{(R)-4-[3-(Acetylamino-methyl)-phenoxy]-7-fluoro-indan-1-yloxy}-2,3-dihydro-benzofuran-3-yl]-acetic acid]	55 nM
CC(=O)Nc1ccc(Oc2ccc(F)c3c2CC[C@H]3Oc2ccc3c(c2)OC[C@H]3CC(=O)O)cc1 [Example 8, {(S)-6-[(R)-4-(4-Acetylamino-phenoxy)-7-fluoro-indan-1-yloxy]-2,3-dihydro-benzofuran-3-yl}-acetic acid]	34 nM
O=C(O)C[C@@H]1COc2cc(O[C@@H]3CCc4c(Oc5ccc(-n6ccnc6)cc5)ccc(F)c43)ccc21 [Example 10, {(S)-6-[(R)-7-Fluoro-4-(4-imidazol-1-yl-phenoxy)-indan-1-yloxy]-2,3-dihydro-benzofuran-3-yl}-acetic acid]	11 nM
O=C(O)C[C@@H]1COc2cc(O[C@@H]3CCc4c(Oc5ccc(-c6nnn[nH]6)cc5)ccc(F)c43)ccc21 [Example 13, [(S)-6-{(R)-7-Fluoro-4-[4-(1H-tetrazol-5-yl)-phenoxy]-indan-1-yloxy}-2,3-dihydro-benzofuran-3-yl]-acetic acid]	282 nM
Cn1nnnc1-c1ccc(Oc2ccc(F)c3c2CC[C@H]3Oc2ccc3c(c2)OC[C@H]3CC(=O)O)cc1 [Example 14, [(S)-6-{(R)-7-Fluoro-4-[4-(1-methyl-1H-tetrazol-5-yl)-phenoxy]-indan-1-yloxy}-2,3-dihydro-benzofuran-3-yl]-acetic acid]	23 nM
Cn1nnc(-c2ccc(Oc3ccc(F)c4c3CC[C@H]4Oc3ccc4c(c3)OC[C@H]4CC(=O)O)cc2)n1 [Example 15, [(S)-6-{(R)-7-Fluoro-4-[4-(2-methyl-2H-tetrazol-5-yl)-phenoxy]-indan-1-yloxy}-2,3-dihydro-benzofuran-3-yl]-acetic acid]	3 nM
O=C(O)C[C@@H]1COc2cc(O[C@@H]3CCc4c(Oc5ccnc(O[C@H]6CCOC6)c5)ccc(F)c43)ccc21 [Example 16, {(S)-6-[(R)-7-fluoro-4-{2-[(S)-tetrahydro-furan-3-yloxy]-pyridin-4-yloxy}-indan-1-yloxy]-2,3-dihydro-benzofuran-3-yl}-acetic acid]	9 nM
CC(C)(O)CCOc1ccc(Oc2ccc(F)c3c2CC[C@H]3Oc2ccc3c(c2)OC[C@H]3CC(=O)O)nc1 [Example 17, [(S)-6-{(R)-7-Fluoro-4-[5-(3-hydroxy-3-methyl-butoxy)-pyridin-2-yloxy]-indan-1-yloxy}-2,3-dihydro-benzofuran-3-yl]-acetic acid]	23 nM
O=C(O)C[C@@H]1COc2cc(O[C@@H]3CCc4c(Oc5ccc(O[C@H]6CCOC6)cn5)ccc(F)c43)ccc21 [Example 18, {(S)-6-[(R)-7-Fluoro-4-{5-[(S)-tetrahydro-furan-3-yloxy}-pyridin-2-yloxy}-indan-1-yloxy]-2,3-dihydro-benzofuran-3-yl}-acetic acid]	31 nM
CS(=O)(=O)CCCOc1c(F)cc(Oc2ccc(F)c3c2CC[C@H]3Oc2ccc3c(c2)OC[C@H]3CC(=O)O)cc1F [Example 19, [(S)-6-{(R)-4-[3,5-Difluoro-4-(3-methanesulfonyl-propoxy)-phenoxy]-7-fluoro-indan-1-yloxy}-2,3-dihydro-benzofuran-3-yl]-acetic acid]	12 nM
CC(C)(O)Cn1cc(-c2c(F)cc(Oc3ccc(F)c4c3CC[C@H]4Oc3ccc4c(c3)OC[C@H]4CC(=O)O)cc2F)cn1 [Example 20, {(S)-6-[(R)-4-{3,5-Difluoro-4-[1-(2-hydroxy-2-methyl-propyl)-1H-pyrazol-4-yl]-phenoxy}-7-fluoro-indan-1-yloxy]-2,3-dihydro-benzofuran-3-yl}-acetic acid]	7 nM
O=C(O)C[C@@H]1COc2cc(O[C@@H]3CCc4c(Oc5ccc(-c6nccs6)cc5)ccc(F)c43)ccc21 [Example 21, {(S)-6-[(R)-7-Fluoro-4-(4-thiazol-2-yl-phenoxy)-indan-1-yloxy]-2,3-dihydro-benzofuran-3-yl}-acetic acid]	6 nM
Cc1ncc(-c2ccc(Oc3ccc(F)c4c3CC[C@H]4Oc3ccc4c(c3)OC[C@H]4CC(=O)O)cc2)s1 [Example 22, [(S)-6-{(R)-7-Fluoro-4-[4-(2-methyl-thiazol-5-yl)-phenoxy]-indan-1-yloxy}-2,3-dihydro-benzofuran-3-yl]-acetic acid]	5 nM
CC(C)(O)CCCc1ccc(Oc2ccc(F)c3c2CC[C@H]3Oc2ccc3c(c2)OC[C@H]3CC(=O)O)nc1 [Example 23, [(S)-6-{(R)-7-Fluoro-4-[5-(4-hydroxy-4-methyl-pentyl)-pyridin-2-yloxy]-indan-1-yloxy}-2,3-dihydro-benzofuran-3-yl]-acetic acid]	84 nM
O=C(O)C[C@@H]1COc2cc(O[C@@H]3CCc4c(Oc5ccc6c(c5)NC(=O)CC6)ccc(F)c43)ccc21 [Example 24, {(S)-6-[(R)-7-Fluoro-4-(2-oxo-1,2,3,4-tetrahydroquinoline-7-yloxy)-indan-1-yloxy]-2,3-dihydrobenzofuran-3-yl}-acetic acid]	10 nM
O=C(O)C[C@@H]1COc2cc(O[C@@H]3CCc4c(Oc5ccc6c(c5)OCO6)ccc(F)c43)ccc21 [Example 25, {(S)-6-[(R)-4-(Benzo[d][1,3]dioxol-5-yloxy)-7-fluoro-indan-1-yloxy]-2,3-dihydrobenzofuran-3-yl}-acetic acid]	6 nM
O=C(O)C[C@@H]1COc2cc(O[C@@H]3CCc4c(Oc5ccc6c(c5)OCCO6)ccc(F)c43)ccc21 [Example 26, {(S)-6-[(R)-4-(2,3-Dihydrobenzo[b][1,4]dioxin-6-yloxy)-7-fluoro-indan-1-yloxy]-2,3-dihydrobenzofuran-3-yl}-acetic acid]	6 nM
O=C(O)C[C@@H]1COc2cc(O[C@@H]3CCc4c(Oc5ccc(C6CCOCC6)cc5)ccc(F)c43)ccc21 [Example 27, ((S)-6-{(R)-7-Fluoro-4-[4-(tetrahydro-2H-pyran-4-yl)phenoxy]-indan-1-yloxy}-2,3-dihydrobenzofuran-3-yl)-acetic acid]	9 nM
CC(C)(O)CCCc1ccc(Oc2ccc(F)c3c2CC[C@H]3Oc2ccc3c(c2)OC[C@H]3CC(=O)O)cc1 [Example 28, ((S)-6-{(R)-7-Fluoro-4-[4-(4-hydroxy-4-methylpentyl)phenoxy]-indan-1-yloxy}-2,3-dihydrobenzofuran-3-yl)-acetic acid]	20 nM
CC(C)(O)Cn1cc(-c2cc(F)c(Oc3ccc(F)c4c3CC[C@H]4Oc3ccc4c(c3)OC[C@H]4CC(=O)O)cc2F)cn1 [Example 29, [(S)-6-((R)-4-{2,5-Difluoro-4-[1-(2-hydroxy-2-methylpropyl)-1H-pyrazol-4-yl]phenoxy}-7-fluoro-indan-1-yloxy)-2,3-dihydrobenzofuran-3-yl]-acetic acid]	12 nM
CC(C)(O)CCn1ncc2cc(Oc3ccc(F)c4c3CC[C@H]4Oc3ccc4c(c3)OC[C@H]4CC(=O)O)ccc21 [Example 30, ((S)-6-{(R)-7-Fluoro-4-[1-(3-hydroxy-3-methylbutyl)-1H-indazol-5-yloxy]-indan-1-yloxy}-2,3-dihydrobenzofuran-3-yl)-acetic acid]	13 nM
CC(C)(O)Cn1cc(-c2cc(F)c(Oc3ccc(F)c4c3CC[C@H]4Oc3ccc4c(c3)OC[C@H]4CC(=O)O)c(F)c2)cn1 [Example 31, [(S)-6-((R)-4-{2,6-Difluoro-4-[1-(2-hydroxy-2-methylpropyl)-1H-pyrazol-4-yl]phenoxy}-7-fluoro-indan-1-yloxy)-2,3-dihydrobenzofuran-3-yl]-acetic acid]	58 nM
Cc1nc(-c2ccc(Oc3ccc(F)c4c3CC[C@H]4Oc3ccc4c(c3)OC[C@H]4CC(=O)O)cc2)cs1 [Example 32, ((S)-6-{(R)-7-Fluoro-4-[4-(2-methylthiazol-4-yl)phenoxy]-indan-1-yloxy}-2,3-dihydrobenzofuran-3-yl)-acetic acid]	13 nM
CC(C)(O)CCOc1cc(F)c(Oc2ccc(F)c3c2CC[C@H]3Oc2ccc3c(c2)OC[C@H]3CC(=O)O)cc1F [Example 34, ((S)-6-{(R)-4-[2,5-Difluoro-4-(3-hydroxy-3-methylbutoxy)phenoxy]-7-fluoro-indan-1-yloxy}-2,3-dihydrobenzofuran-3-yl)-acetic acid]	6 nM
O=C(O)C[C@@H]1COc2cc(O[C@@H]3CCc4c(Oc5ccc(CC6CCOCC6)cc5)ccc(F)c43)ccc21 [Example 35, [(S)-6-((R)-7-Fluoro-4-{4-[(tetrahydro-2H-pyran-4-yl)methyl]phenoxy}-indan-1-yloxy)-2,3-dihydrobenzofuran-3-yl]-acetic acid]	5 nM
CC(C)(O)CCn1ncc2ccc(Oc3ccc(F)c4c3CC[C@H]4Oc3ccc4c(c3)OC[C@H]4CC(=O)O)cc21 [Example 36, ((S)-6-{(R)-7-Fluoro-4-[1-(3-hydroxy-3-methylbutyl)-1H-indazol-6-yloxy]-indan-1-yloxy}-2,3-dihydrobenzofuran-3-yl)-acetic acid]	8 nM
